Experimental data from US20160120938A1, “P2X7 RECEPTOR AGONIST FOR USE IN PREVENTING OR TREATING KIDNEY INJURY” (UCL BUSINESS PLC, priority 2013, published 2016).

Legend:
Assay type in all cases: in vivo
P2X7R [1] = biological target: T1, P2X7R (Rattus norvegicus, UniProt Q64663); assay: Creatinine in BDL rats given LPS infusion with intra-renal P2X7R agonist; conditions: LPS 0.25 mg/kg iv over 3 hours
T1 construct: upregulation of the tubular expression of the P2X7R; from tissue; host or cells: kidney of living Sprague-Dawley rats (sham, BDL, BDL+LPS); compounds dosed in vivo
T1 sequence (Q64663 1-595): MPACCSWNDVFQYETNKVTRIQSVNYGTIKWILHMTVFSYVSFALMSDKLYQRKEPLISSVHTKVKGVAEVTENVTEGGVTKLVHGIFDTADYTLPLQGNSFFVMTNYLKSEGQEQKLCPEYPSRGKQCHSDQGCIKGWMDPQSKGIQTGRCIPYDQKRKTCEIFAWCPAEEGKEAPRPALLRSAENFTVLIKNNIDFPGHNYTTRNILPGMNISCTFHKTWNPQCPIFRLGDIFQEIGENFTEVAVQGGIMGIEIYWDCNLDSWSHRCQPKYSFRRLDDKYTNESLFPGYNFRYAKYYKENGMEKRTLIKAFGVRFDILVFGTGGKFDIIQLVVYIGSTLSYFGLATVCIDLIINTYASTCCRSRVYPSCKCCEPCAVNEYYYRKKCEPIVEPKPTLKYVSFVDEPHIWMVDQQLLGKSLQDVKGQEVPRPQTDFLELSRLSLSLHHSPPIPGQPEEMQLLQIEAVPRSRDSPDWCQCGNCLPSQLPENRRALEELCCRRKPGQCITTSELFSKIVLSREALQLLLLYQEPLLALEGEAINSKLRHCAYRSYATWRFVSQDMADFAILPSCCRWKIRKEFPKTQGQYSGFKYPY
Source text: (§1) These experiments utilised an established animal model of cirrhosis, the bile duct ligated (BDL) rat. BDL rats may be generated by methods known in the art. For example, male Sprague-Dawley rats (200-250 g) may be used for this procedure. Following anaesthetisation, a mid-line laparotamy may be performed, the bile duct exposed, triply ligated with 4.0 silk suture, and severed between the second and third ligature. The wound is then closed in layers with absorbable suture, and the animal allowed to recover in a quiet room before being returned to the animal storage facility. Sham animals underwent sham laparotomy. The BDL model was studied 4 weeks after bile duct ligation and liver histology confirmed advanced fibrosis.
Rats were given a continuous intravenous infusion of LPS at 0.25 mg/kg over 3 hours. The P2X7R agonist BzATP was infused into the renal artery 30 mins before LPS infusion began and continued for the duration of the experiment at a dose of 150 μg/hour.

P2X7R [2] = biological target: T1, P2X7R; assay: P2X7 receptor expression in kidneys, cirrhotic AKI model (BDL rat + LPS), immunohistochemistry; conditions: 300 μmol/kg IP 12-hourly for 7 days, with or without LPS 0.5 mg/kg IP, n=3 in each group, FIG. 3
Source text: as §1
(§2) LPS (lipopolysaccharide) was given at a dose of 0.5 mg/kg intra-peritoneal. The P2X7R antagonist (A-438079) was given at a dose of 300 μmol/kg 12-hourly 7 days before LPS was given (if applicable). Animals were terminated 3 hours post LPS dose. P2X7RA=P2X7R antagonist.
Urine was collected for assessment of urinary biomarkers of acute kidney injury (AKI). Blood was collected for biochemistry, endotoxin and cytokine analysis. Tissue was collected for histology, immunohistochemistry and western blot. Brain frontal cortex was collected to ascertain brain water. Biochemistry was measured using COBAS integra. Urinary NGAL was measured by ELISA. […]

P2X7R [3] = biological target: T1, P2X7R; assay: Biomarkers of acute kidney injury in cirrhotic AKI model (BDL rat + LPS) with P2X7R antagonist; conditions: 300 μmol/kg 12-hourly 7 days before LPS 0.5 mg/kg IP, terminated 3 hours post LPS
Source text: as §1, §2
Urine was collected for assessment of urinary biomarkers of acute kidney injury (AKI). Blood was collected for biochemistry, endotoxin and cytokine analysis. Tissue was collected for histology, immunohistochemistry and western blot. Brain frontal cortex was collected to ascertain brain water. Biochemistry was measured using COBAS integra. Urinary NGAL was measured by ELISA.

| increased P2X7 receptor expression in kidneys (tubular expression) of BDL and BDL+LPS animals (P2X7R [2]) | Compound | Creatinine (mean) (P2X7R [1]; BDL + LPS + BzATP group, 150 μg/hour into renal artery) [µmol/L] | reduction of LPS induced rise in creatinine (P2X7R [1]; BDL rat, infused into renal artery 150 μg/hour from 30 mins before LPS, FIG. 7) [%] | biomarkers of acute kidney injury (urine NGAL, creatinine) compared to the other groups (P2X7R [3]; FIG. 4) | biomarkers of acute kidney injury (urine NGAL, creatinine) compared to the other groups (P2X7R [3]; FIG. 4, listed as P2X7R antagonist) |
| --- | --- | --- | --- | --- | --- |
| – | 2′(3′)-O-(4-Benzoylbenzoyl)adenosine-5′-triphosphate [BzATP] | 57.93 | 24 | – | – |
| attenuated | Clc1cccc(-c2nnnn2Cc2cccnc2)c1Cl [A-438079] | – | – | greater | higher |
